Active and inactive are the calls of the source. The rule behind the calls is not given here.
Key:
[1] = tested on: K562/Adr; assay: Induction of apoptosis in human K562/ADR cells assessed as viable cells at 0.1 uM pretreated with MAPK inhibitor SB203580 for 1 hr followed by compound addition after 48 hrs by Annexin V-APC/7-AAD staining based flow cytometry (reference value: 95.31%); type: functional; details: read-out: Activity
[2] = tested on: K562/Adr; assay: Induction of apoptosis in human K562/ADR cells assessed as chromatin condensation at 0.1 uM measured after 24 hrs by Hoechst33342 staining-based inverted fluorescent microscopic analysis; type: functional, cell-based
[3] = Downregulation of CyclinA expression in human K562/ADR cells assessed as ratio of CyclinA to beta-actin level at 0.1 uM pretreated with MAPK inhibitor U0126 for 1 hr followed by compound addition measured after 48 hrs by Western blot analysis (reference value: 0.64); type: functional, cell-based
[4] = biological target: T1, MAP kinase p38 (Homo sapiens) (UniProt O15264+Q15759+Q16539+P53778); assay: Induction of P38 phosphorylation in human K562/ADR cells assessed as ratio of phosphorylated p38 to beta-actin level at 0.1 uM pretreated with ROS scavenger NAC for 2 hrs followed by compound addition after 48 hrs by Western blotting method (reference value: 0.25); type: cell-based
[5] = tested on: K562/Adr; assay: Induction of intracellular ROS accumulation in human K562/ADR cells assessed as fluorescence intensity at 0.1 uM measured after 24 hrs by DCFH-DA probe based flow cytometry relative to vehicle-treated control; type: functional
[6] = tested on: K562/Adr; assay: Induction of apoptosis in human K562/ADR cells assessed as ratio of cleaved caspase-3 to beta-actin level at 0.1 uM pretreated with MAPK inhibitor U0126 for 1 hr followed by compound addition measured after 48 hrs by Western blot analysis (reference value: 0.06); type: functional
[7] = Antiproliferative activity against human K562 cells measured after 72 hrs by CCK8 assay; type: functional, cell-based; details: K562, 72 h
[8] = tested on: K562/Adr; assay: Induction of apoptosis in human K562/ADR cells assessed as early apoptotic cells at 0.1 uM pretreated with MAPK inhibitor SP600125 for 1 hr followed by compound addition after 48 hrs by Annexin V-APC/7-AAD staining based flow cytometry (reference value: 2.74%); type: functional; set-up: scale not given: the % may be the effect or the level left
[9] = biological target: T1, MAP kinase p38 (Homo sapiens); assay: Induction of P38 phosphorylation in human K562/ADR cells assessed as ratio of phosphorylated p38 to beta-actin level at 0.1 uM pretreated with MAPK inhibitor SB203580 for 1 hr followed by compound addition after 48 hrs by Western blotting method (reference value: 0.25); type: cell-based
[10] = Downregulation of CDK2 expression in human K562/ADR cells assessed as ratio of CDK2 to beta-actin level at 0.1 uM pretreated with MAPK inhibitor SB203580 for 1 hr followed by compound addition measured after 48 hrs by Western blot analysis (reference value: 0.65); type: functional, cell-based
[11] = tested on: K562/Adr; assay: Induction of intracellular ROS accumulation in human K562/ADR cells assessed as fluorescence intensity at 0.1 uM treated 2 hrs post ROS scavenger NAC addition measured after 24 hrs by DCFH-DA probe based flow cytometry relative to vehicle-treated control; type: functional
[12] = tested on: K562/Adr; assay: Induction of ERK1/2 phosphorylation in human K562/ADR cells assessed as ratio of phosphorylated ERK1/2 to beta-actin level at 0.1 uM pretreated with MAPK inhibitor SP600125 for 1 hr followed by compound addition after 48 hrs by Western blotting method (reference value: 0.22); type: cell-based
[13] = tested on: K562/Adr; assay: Induction of apoptosis in human K562/ADR cells assessed as ratio of cleaved caspase-9 to beta-actin level at 0.1 uM pretreated with ROS scavenger NAC for 2 hrs followed by compound addition measured after 48 hrs by Western blot analysis (reference value: 0.05); type: functional
[14] = Downregulation of CyclinA expression in human K562/ADR cells assessed as ratio of CyclinA to beta-actin level at 0.1 uM pretreated with ROS scavenger NAC for 2 hrs followed by compound addition measured after 48 hrs by Western blot analysis (reference value: 0.64); type: functional, cell-based
[15] = tested on: K562/Adr; assay: Induction of apoptosis in human K562/ADR cells assessed as necrotic cells at 0.1 uM pretreated with MAPK inhibitor U0126 for 1 hr followed by compound addition after 48 hrs by Annexin V-APC/7-AAD staining based flow cytometry (reference value: 0.26%); type: functional; set-up: scale not given: the % may be the effect or the level left
[16] = tested on: K562/Adr; assay: Induction of apoptosis in human K562/ADR cells assessed as ratio of cleaved caspase-8 to beta-actin level at 0.1 uM pretreated with MAPK inhibitor U0126 for 1 hr followed by compound addition measured after 48 hrs by Western blot analysis (reference value: 0.07); type: functional
[17] = tested on: K562/Adr; assay: Induction of ERK1/2 phosphorylation in human K562/ADR cells assessed as ratio of phosphorylated ERK1/2 to beta-actin level at 0.1 uM pretreated with MAPK inhibitor U0126 for 1 hr followed by compound addition after 48 hrs by Western blotting method (reference value: 0.22); type: cell-based
[18] = tested on: K562/Adr; assay: Induction of apoptosis in human K562/ADR cells assessed as ratio of cleaved caspase-9 to beta-actin level at 0.1 uM pretreated with MAPK inhibitor U0126 for 1 hr followed by compound addition measured after 48 hrs by Western blot analysis (reference value: 0.05); type: functional
[19] = Cell cycle arrest in human K562/ADR cells assessed as accumulation at S-phase at 0.1 uM measured after 48 hrs by propidium iodide staining-based flow cytometry (reference value: 47.29 +/- 2.22%); type: functional
[20] = Downregulation of CDK1 expression in human K562/ADR cells assessed as ratio of CDK1 to beta-actin level at 0.1 uM pretreated with MAPK inhibitor U0126 for 1 hr followed by compound addition measured after 48 hrs by Western blot analysis (reference value: 0.53); type: functional, cell-based
[21] = tested on: K562/Adr; assay: Induction of apoptosis in human K562/ADR cells assessed as ratio of cleaved caspase-8 to beta-actin level at 0.1 uM pretreated with ROS scavenger NAC for 2 hrs followed by compound addition measured after 48 hrs by Western blot analysis (reference value: 0.07); type: functional
[22] = tested on: K562/Adr; assay: Induction of apoptosis in human K562/ADR cells assessed as ratio of cleaved PARP to beta-actin level at 0.1 uM pretreated with MAPK inhibitor SB203580 for 1 hr followed by compound addition measured after 48 hrs by Western blot analysis (reference value: 0.04); type: functional
[23] = tested on: K562/Adr; assay: Induction of apoptosis in human K562/ADR cells assessed as ratio of cleaved PARP to beta-actin level at 0.1 uM pretreated with MAPK inhibitor SP600125 for 1 hr followed by compound addition measured after 48 hrs by Western blot analysis (reference value: 0.04); type: functional
[24] = biological target: T1, MAP kinase p38 (Homo sapiens); assay: Induction of P38 phosphorylation in human K562/ADR cells assessed as ratio of phosphorylated p38 to beta-actin level at 0.1 uM pretreated with MAPK inhibitor SP600125 for 1 hr followed by compound addition after 48 hrs by Western blotting method (reference value: 0.25); type: cell-based
[25] = biological target: T1, MAP kinase p38 (Homo sapiens); assay: Induction of P38 phosphorylation in human K562/ADR cells assessed as ratio of phosphorylated p38 to beta-actin level at 0.1 uM measured after 48 hrs by Western blotting method (reference value: 0.25); type: cell-based

COc1cc([C@@H]2c3cc4c(cc3[C@H](OC(=O)c3ccco3)[C@H]3COC(=O)[C@H]23)OCO4)cc(OC)c1OC
viability at 0.1 µM [1]: 59.4%
Activity [2]: Active
Ratio [3]: 0.41
Ratio [4]: 0.29
fold change (FC) [5]: 2.396
Ratio [6]: 0.49
IC50 [7]: 25 nM
Activity [8]: 7.8%
Ratio [9]: 0.02
Ratio [10]: 0.24
fold change (FC) [11]: 0.49
Ratio [12]: 0.06
Ratio [13]: 0.1
Ratio [14]: 0.58
Activity [15]: 3.32%
Ratio [16]: 0.42
Ratio [17]: 0.01
Ratio [18]: 0.26
Activity [19]: 60.8%
Ratio [20]: 0.26
Ratio [21]: 0.15
Ratio [22]: 0.48
Ratio [23]: 0.53
Ratio [24]: 0.19
Ratio [25]: 0.46

Reference: ChEMBL document CHEMBL3872207, “Aromatic heterocyclic esters of podophyllotoxin exert anti-MDR activity in human leukemia K562/ADR cells via ROS/MAPK signaling pathways” (Eur J Med Chem, 2016)
